Among the data in US10561681B2, “Antimetastatic 2H-selenopheno[3,2-h]chromenes, synthesis thereof, and methods of using same agents” (Latvian Institute of Organic Synthesis, priority 2016, dated 2020) are IC50 and LD50 values, retold here.

Series [1] deals with A549 (human lung carcinoma). Nature of the series: In vitro cytotoxicity, MTT test. In kind it is cell-based. Particulars: Homo sapiens, A549, 72 h, MTT, 72 h; read-out: Cytotoxicity IC50, A549. In short, it runs like this: (§1)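 Cells seeded at about 2-9·10^4 cells/mL immediately after compound addition, exposed 72 h at 37 °C, 5% CO2. Survival then measured by MTT (2 mg/mL in HBSS, 3 h) in fresh medium with 10 mM HEPES; formazan dissolved in DMSO and read at 540 nm against untreated controls.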
(Tetrazolium assays rely on reduction of a dye to a coloured formazan, in cell work by metabolically active cells.)

In series [2] the test system is CCL-8 (mouse sarcoma). Nature of the series: In vitro cytotoxicity, MTT test. In kind it is cell-based. Particulars: MTT, 72 h, read-out: Cytotoxicity IC50, CCL-8. The method, boiled down:
as §1

The test system of series [3] is HT-1080 (human fibrosarcoma). Nature of the series: In vitro cytotoxicity, MTT test. In kind it is cell-based. To be noted: HT-1080, MTT, 72 h, read-out: Cytotoxicity IC50, HT-1080. The method, boiled down:
as §1

Series [4] has as its system HepG2 (human hepatocellular carcinoma). Nature of the series: In vitro cytotoxicity, MTT test. In kind it is cell-based. To be noted: HepG2, MTT, 72 h, read-out: Cytotoxicity IC50, HepG2. The method, boiled down:
as §1

Series [5] has as its system MCF-7 (human breast adenocarcinoma, estrogen-positive). Nature of the series: In vitro cytotoxicity, MTT test. In kind it is cell-based. Particulars: MCF7, MTT, 72 h, read-out: Cytotoxicity IC50, MCF-7. The method, boiled down:
as §1

In series [6] the test system is MDA-MB-435s (human melanoma). Briefly: In vitro cytotoxicity, MTT test. In kind it is cell-based. Particulars: MTT, 72 h, read-out: Cytotoxicity IC50, MDA-MB-435s. The method, boiled down:
as §1

The test system of series [7] is MES-SA (human uterus sarcoma). Nature of the series: In vitro cytotoxicity, MTT test. In kind it is cell-based. To be noted: MTT, 72 h, read-out: Cytotoxicity IC50, MES-SA. In short, it runs like this:
as §1

The subject of series [8] is MG-22A (mouse hepatoma). Briefly: In vitro cytotoxicity, MTT test. In kind it is cell-based. To be noted: MTT, 72 h, read-out: Cytotoxicity IC50, MG-22A. In short, it runs like this: as §1
Series [9] relates to SH-SY5Y (human neuroblastoma). Briefly: In vitro cytotoxicity, MTT test. In kind it is cell-based. To be noted: Homo sapiens, SH-SY5Y, 72 h, MTT, read-out: Cytotoxicity IC50, SHSY5Y. In short, it runs like this:
as §1

Series [10] is described as follows: Basal cytotoxicity test, Neutral Red Uptake (NRU) assay. Particulars: for LD50 at 24 h: mouse, po, acute oral LD50 calculated from 3T3 NRU IC50 by regression formula, read-out: Basal cytotoxicity Estimated* LD50; for IC50 at 24 h: normal mouse embryo fibroblasts, read-out: Cytotoxicity IC50, 3T3. In kind it is cell-based. In short, it runs like this: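 Balb/c 3T3 fibroblasts (9000 cells/well) exposed 24 h to compounds at 1–1000 μg/ml in DMEM with 5% FBS. Viability by Neutral Red uptake (3 h, 0.05 mg/mL), absorbance at 540 nm relative to untreated cells; IC50 from concentration–response.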

Series [11] can be described thus: Acute p.o. toxicity, Up-and-Down Procedure (OECD 425). Particulars: mouse, in vivo, po; p.o. single dose, 6 weeks old male ICR mice. The protocol: Acute p.o. toxicity (LD50) was estimated by the Up-and-Down Procedure according to the OECD Test Guideline 425 [OECD (2001) Guideline for testing of chemicals OECD 425, acute oral toxicity—Up-and-Down Procedure, Paris, p. 1-26]. Animals were observed daily for clinical signs or mortality over a period of two weeks following the treatment. Compounds were dissolved in DMSO and then in PBS (pH 7.4; DMSO final concentration <1%). The test substance was administered in a single dose p.o. to mice. […]
Acute toxicity in vivo has been determined for I-10 and I-11 on 6 weeks old male ICR mice.

“And” between values parts separate entries of the source, which are not always exact repeats. Identical values can stand only once.

What is called IC50 is the concentration that inhibits the measured activity by half. The term LD50 denotes the dose at which mortality reaches 50%. Consider `COC(=O)c1cc2ccc3c(Br)c(CN4CCN(C)CC4)[se]c3c2oc1=O` [Compound I-10, Methyl 7-bromo-8-((4-methylpiperazin-1-yl)methyl)-2-oxo-2H-selenopheno[3,2-h]chromene-3-carboxylate], for which the IC50 in [1] was 187 ± 10 µM; in series [2], 94 ± 7 µM; in [3], 170 ± 9 µM; in [4] it was 187 ± 10 µM; in series [5], 150 ± 9 µM; in [6], > 187 µM. The IC50 in [7] is > 187 µM; in [8], 64 ± 5 µM; in series [9], > 117 µM. The LD50 at 24 h in series [10] is 4300 µmol/kg and 2300 mg/kg. Further, the IC50 at 24 h in series [10] came out at 86 ± 5 µM. Moreover, the LD50 at 2 weeks in series [11] is 891 mg/kg.

In the case of `O=C(O)c1cc2ccc3c(Br)c(C4(O)CCCCC4)[se]c3c2oc1=O` [Compound I-11, 7-Bromo-8-(1-hydroxycyclohexyl)-2-oxo-2H-selenopheno[3,2-h]chromene-3-carboxylic acid], the IC50 is > 213 µM in series [1]; 149 ± 9 µM in series [2]; 77 ± 5 µM in series [3]; > 213 µM in series [4]; 213 ± 6 µM in series [5]; 208 ± 13 µM in series [6]. In addition, the IC50 in series [7] was 206 ± 10 µM; in series [8], > 122 µM; in series [9], > 117 µM. Also, in series [10], the LD50 at 24 h was > 5800 µmol/kg and > 2730 mg/kg. Further, the IC50 at 24 h in series [10] is > 213 µM. Also, the LD50 at 2 weeks in [11] was > 2000 mg/kg.
